# Data reported in patent US8722689B2, “Synergistic combination of flumetsulam or diclosulam with diiodomethyl-P-tolylsulfone” (Dow Global Technologies LLC, priority 2010, dated 2014).
# Assays:
# Type in all cases: cell-based
# [1] = system: Alternaria alternata mixed with Trichoderma viride (AaTv); assay: Fungal efficacy testing, modified ASTM 5590, paint film (Flumetsulam study); conditions: four weeks; for % inhibition: at the total conc given; for Total conc, ppm: concentration in paint chosen as minimum inhibitory concentration for SI, 30 C
# Description: (§1) Sample preparation: A single or blend of biocides was post added into white acrylic latex paint free of biocides to give a maximum total active ingredient/s concentration tested. This paint was then diluted with a biocide free acrylic latex paint to give targeted concentrations for the testing. Depending on the type of biocide blends tested, the total biocides concentrations varies from 200 to 5000 ppm. After biocides addition or dilution, each sample was hand mixed for at least a minute until uniformity is achieved. Each of the paint samples as well as a control sample (containing no biocide) were used to prepare films on black plastic-vinyl chloride/acetate copolymer panels (LENETA, Mahwah, N.J.) using a 3 mil (0.0762 mm) bird bar applicator. The panels were thoroughly dried for at least 2 days avoiding direct exposure to sunlight. Square discs (0.5 inch; 1.27 cm^2) were cut out from each panel and were used as the substrate for fungal and algal efficacy tests. This sample size allowed for an agar border when the sample disc was placed into the well of the test plate. Each sample was tested in duplicate
# (§2) Test conditions: The appropriate media (BOLD'S 3N for Chlorophytes, BG-11 for Cyanobacteria, and PDA for fungi) were used to support microbial growth. The test plates were maintained at room temp (25° C.-26° C.), in a cycled light-dark environment, for four weeks for algae. Plates for fungal challenge tests were maintained at 30 C for four weeks. At the end of the incubation period the samples were scored for percent area covered by visible microbial growth.
# (§3) ASTM 5590 is a standard accelerated test method for determining resistance of various coatings (including paints) to fungal defacement. To accommodate for high-throughput screening, this method was scaled down from petri plates to 6-well plates. To set up the test, an agar plug was placed at the bottom of each well of the sterile 6-well plate. A single coupon was placed with a pair of sterile forceps at the center of the agar plug (on top) with the painted surface facing upwards. Fungal inoculums were prepared by mixing equal concentrations (1×10^6 cfu/ml) and equal volumes (depending on number of samples to be tested) of like growing organisms. For Flumetsulam+various IT synergy study, three pools of mixed fungi were prepared as the test inoculum. Cladosporium herbarum was mixed with Aureobasidium pullulans; Aspergillus niger was mixed with Penicillium funiculosum and Alternaria alternata was mixed with Trichoderma viride. For Diclosulam+various IT synergy study, all above fungi were mixed as a single pool. Each well was inoculated with 400 μl of organism mixture (1×10^6 cfu/ml) making sure that the whole surface (paint film as well as the agar surrounding it) was evenly covered. The plates were incubated at 30° C. in presence of moisture, for a period of four weeks. The total percent area covered was evaluated and recorded at the end of each week after the 2nd week and recorded in increments of 5%.
# (§4) The SI is calculated based on […].
# [2] = system: Aspergillus niger mixed with Penicillium funiculosum (AnPf); assay: as above; conditions: four weeks; for % inhibition: at the total conc given; for Total conc, ppm: concentration in paint chosen as minimum inhibitory concentration for SI, 30 C
# Description: as §1, §2, §3, §4
# [3] = system: Cladosporium herbarum mixed with Aureobasidium pullulans (ApCh); assay: as above; conditions: four weeks; for % inhibition: at the total conc given; for Total conc, ppm: concentration in paint chosen as minimum inhibitory concentration for SI, 30 C
# Description: as §1, §2, §3, §4
# [4] = system: Chlorella sp., Chlorella kessleri, and Nostoc commune (Cs + Ck + Nc); assay: Algal efficacy testing, modified ASTM 5589, paint film (Flumetsulam study); conditions: four weeks; for % inhibition: at the total conc given; for Total conc, ppm: concentration in paint chosen as minimum inhibitory concentration for SI, 25-26 C
# Description: as §1, §2
# (§5) ASTM 5589 is a standard accelerated test method for determining resistance of various coatings (including paints) to algal defacement. To accommodate for high-throughput screening, this method was scaled down from petri plates to 6-well plates. A single coupon was placed with a pair of sterile forceps at the center of the agar plug (on top) with the painted surface facing upwards. Algal inoculums were prepared by mixing equal concentrations (1×10^6 cfu/ml) and equal volumes (depending on number of samples to be inoculated) of like growing organisms.
# (§6) In Flumetsulam+various IT synergy study, three pool of mixed algae were prepared as the test inoculum, Gloeocapsa sp. and Oscillatoria sp. a mix of cyanobacteria grown on BG-11 media; Chlorella sp., Chlorella kessleri, and Nostoc commune are unicellular chlorphytes that were mixed and grown on Bold media; Trentepohlia aurea, Tretepohlia odorata, and Calotrix parientina are filamentous algae that were mixed and grown on Bold media.
# (§7) Each well that contains a tested coupon was inoculated with 400 μl of organism mixture (1×10^6 cfu/ml) making sure that the whole surface (paint film as well as the agar surrounding it) was evenly covered. The plates were incubated at room temp (25° C.-26° C.) with cyclic exposure to light (OTT-Lite model # OTL4012P, 40 Watt, 26KLumen) and dark phases, for a period of four weeks. The total area covered was evaluated at the end of each week according to percent area covered in 5% increments.
# as §4
# [5] = system: Trentepohlia aurea, Tretepohlia odorata, and Calotrix parientina (Cp + To + Ta); assay: as above; conditions: four weeks; for % inhibition: at the total conc given; for Total conc, ppm: concentration in paint chosen as minimum inhibitory concentration for SI, 25-26 C
# Description: as §1, §2, §5, §6, §7, §4
# [6] = system: Gloeocapsa sp. and Oscillatoria sp. (Gs + Os); assay: Algal efficacy testing, modified ASTM 5589, paint film (both studies); conditions: four weeks; for % inhibition: at the total conc given; for Total conc, ppm: concentration in paint chosen as minimum inhibitory concentration for SI
# Description: as §1, §2, §5, §6
# (§8) In Diclosulam+various IT synergy study, only two pools of mixed algae were prepared; Gloeocapsa sp. and Oscillatoria sp. grown on BG-11 media and Chlorella sp., Chlorella kessleri, Nostoc commune, Trentepohlia aurea, Tretepohlia odorata, and Calotrix parientina grown on Bold media
# as §7, §4
# [7] = system: Aa + Tv + An + Pf + Ap + Ch (all fungi mixed as a single pool); assay: Fungal efficacy testing, modified ASTM 5590, paint film (Diclosulam study, single pool); conditions: four weeks; for Total conc, ppm: Diclosulam:DIMTS study, concentration in paint used for SI, 30 C; for % inhibition: at the total conc given
# Description: as §1, §2
# as §3, with “Each well was inoculated with 400 μl of organism mixture (1×10^6 cfu/ml) making sure that the whole surface (paint film as well as the agar surrounding it) was evenly covered. The plates were incubated at 30° C. in presence of moisture, for a period of four weeks.” left out
# as §4
# [8] = system: Cp + To + Ta + Cs + Ck + Nc (algae grown on Bold media); assay: Algal efficacy testing, modified ASTM 5589, paint film (Diclosulam study); conditions: four weeks; for Total conc, ppm: Diclosulam:DIMTS study, concentration in paint used for SI; for % inhibition: at the total conc given
# Description: as §1, §2, §5, §8
# Each well that contains a tested coupon was inoculated with 400 μl of organism mixture (1×10^6 cfu/ml) making sure that the whole surface (paint film as well as the agar surrounding it) was evenly covered. […] The total area covered was evaluated at the end of each week according to percent area covered in 5% increments.
# as §4
SMILES,% inhibition [1],"Total conc, ppm [1]",% inhibition [2],"Total conc, ppm [2]",% inhibition [3],"Total conc, ppm [3]",% inhibition [4],"Total conc, ppm [4]",% inhibition [5],"Total conc, ppm [5]",% inhibition ([6]; Diclosulam:DIMTS study),"Total conc, ppm ([6]; Diclosulam:DIMTS study)",% inhibition ([6]; Flumetsulam:DIMTS study),"Total conc, ppm ([6]; Flumetsulam:DIMTS study)","Total conc, ppm [7]",% inhibition [7],"Total conc, ppm [8]",% inhibition [8]
"Cc1ccc(S(=O)(=O)C(I)I)cc1 [DIMTS, diiodomethyl-p-tolylsulfone]",70%,2500 ppm,100%,625 ppm,100%,625 ppm,100%,1250 ppm,100%,1250 ppm,85%,2500 ppm,85%,625 ppm,2500 ppm,0%,625 ppm,100%
"CCOc1nc(F)cc2nc(S(=O)(=O)Nc3c(Cl)cccc3Cl)nn12 [Diclosulam, N-(2,6-dichlorophenyl)-5-ethoxy-7-fluoro[1,2,4]triazolo[1,5-c]pyrimidine-2-sulfonamide]",–,–,–,–,–,–,–,–,–,–,85%,875 ppm,–,–,3500 ppm,0%,437.5 ppm,100%
"Cc1ccn2nc(S(=O)(=O)Nc3c(F)cccc3F)nc2n1 [Flumetsulam, N-(2,6-difluorophenyl)-5-methyl[1,2,4]triazolo[1,5-a]pyrimidine-2-sulfonamide]",70%,3500 ppm,40%,3500 ppm,70%,3500 ppm,0%,3500 ppm,95%,3500 ppm,–,–,80%,2625 ppm,–,–,–,–
